Read-outs that look alike come from different tables or passages of the source.
How the values were obtained:
ErbB2 protein [1] = assay: Expression of ErbB2 protein in SKBr3 cells; type: cell-based, human
ErbB2 protein [2] = assay: Expression of ErbB2 protein in glioma cells; type: cell-based
[3] = system: DLD-1 cells (human colorectal cancer cells); assay: MTS cell viability assay, drug combination effect analysis (combination index) in DLD-1 cells; type: cell-based; conditions: combination of antimetabolite with 17-AAG, CI<1 synergism, CI=1 additivity, CI>1 antagonism; for CI values, 17-AAG Pre-Administration: 17-AAG 24 hours before antimetabolite (48 hours); for CI values, 17-AAG Post-Administration: antimetabolite 24 hours, then 17-AAG for 48 hours
Protocol: Human colon adenocarcinoma cell line, DLD-1, and human breast adenocarcinoma cell line, SKBr-3, were obtained from American Type Culture Collection (manassas, Va.). […] Other cytotoxic agents were purchased commercially from suppliers such as Sigma Chemical Co. (St. Louis, Mo.) and Sequoia Research Products (Oxford, UK). Cells were seeded in duplicate in 96-well microtiter plates at a density of 5,000 cells per well and allowed to attach overnight. […] Cell viability was determined using the MTS assay (Promega). […] Based on the IC50 values of each individual drug, combined drug treatment was designed at constant ratios of two drugs, i.e., equivalent to the ratio of their IC50. Two treatment schedules were used: In one schedule, the cells were exposed to 24 hours of 17-AAG or 17-DMAG. The drug was then added to the cells and incubated for 48 hours. […] Cell viability was determined by the MTS assay. Synergism, additivity or antagonism was determined by median effect analysis using the combination index (CI) calculated using Calcusyn (Biosoft, Cambridge, UK). The combination index is defined as follows: […] The quantities [Dx]1 and [Dx]2 represent the concentrations of the first and second drug, respectively, that when used alone provide a response of x % in the assay. […] The “enhancing” effect of two drugs can also be determined.

[4] = system: SKBr cells (human breast cancer cells); assay: MTS cell viability assay, drug combination effect analysis (combination index) in SKBr-3 cells; type: cell-based; conditions: combination of antimetabolite with 17-AAG, CI<1 synergism, CI=1 additivity, CI>1 antagonism; for CI values, 17-AAG Pre-Administration: 17-AAG 24 hours before antimetabolite (48 hours)
Protocol: Human colon adenocarcinoma cell line, DLD-1, and human breast adenocarcinoma cell line, SKBr-3, were obtained from American Type Culture Collection (manassas, Va.). […] Other cytotoxic agents were purchased commercially from suppliers such as Sigma Chemical Co. (St. Louis, Mo.) and Sequoia Research Products (Oxford, UK). Cells were seeded in duplicate in 96-well microtiter plates at a density of 5,000 cells per well and allowed to attach overnight. […] Cell viability was determined using the MTS assay (Promega). […] Based on the IC50 values of each individual drug, combined drug treatment was designed at constant ratios of two drugs, i.e., equivalent to the ratio of their IC50. Two treatment schedules were used: In one schedule, the cells were exposed to 24 hours of 17-AAG or 17-DMAG. The drug was then added to the cells and incubated for 48 hours. […] Cell viability was determined by the MTS assay. Synergism, additivity or antagonism was determined by median effect analysis using the combination index (CI) calculated using Calcusyn (Biosoft, Cambridge, UK). The combination index is defined as follows: […] The “enhancing” effect of two drugs can also be determined.

[5] = clinical trials, sole therapeutic agent, cited from earlier work

Compound | expression of ErbB2 protein (ErbB2 protein [1]) | expression of ErbB2 protein (ErbB2 protein [2]) | CI values, 17-AAG Pre-Administration [3] | CI values, 17-AAG Post-Administration [3] | CI values, 17-AAG Pre-Administration [4] | CI values, 17-AAG Post-Administration ([4]; antimetabolite 24 hours, then 17-AAG for 48 hours) | MTD ([5]; daily ×5 schedule) | MTD ([5]; once-weekly regimen) | MTD ([5]; twice-weekly regimen)
CO[C@H]1/C=C\C=C(/C)C(=O)NC2=CC(=O)C(NCCN(C)C)=C(C[C@@H](C)C[C@H](OC)[C@H](O)[C@@H](C)/C=C(\C)[C@@H]1OC(N)=O)C2=O [17-DMAG, 17-(2-dimethylaminoethyl)amino-17-desmethoxygeldanamycin] | reduced the expression | reduced the expression | – | – | – | – | – | – | –
O=c1[nH]cc(F)c(=O)[nH]1 [5-Fluorouracil, 5-fluorouracil] | – | – | 0.96 ± 0.16 | 0.33 ± 0.08 | 0.65 ± 0.48 | – | – | – | –
Nc1ccn([C@@H]2O[C@H](CO)[C@@H](O)C2(F)F)c(=O)n1 [Gemcitabine, gemcitabine] | – | – | 0.45 ± 0.19 | 0.77 ± 0.23 | 1.79 ± 0.54 | 0.86 ± 0.19 | – | – | –
C=CCNC1=C2C[C@@H](C)C[C@H](OC)[C@H](O)[C@@H](C)/C=C(\C)[C@H](OC(N)=O)[C@@H](OC)/C=C\C=C(/C)C(=O)NC(=CC1=O)C2=O [17-AAG, 17-(allylamino)-17-desmethoxygeldanamycin] | reduced the expression | reduced the expression | – | – | – | – | about 40 mg/m^2 | about 308 mg/m^2 | about 220 mg/m^2
CN(Cc1cnc2nc(N)nc(N)c2n1)c1ccc(C(=O)N[C@@H](CCC(=O)O)C(=O)O)cc1 [Methotrexate, methotrexate] | – | – | 0.83 ± 0.14 | 0.71 ± 0.35 | – | – | – | – | –
